Our source for the IC50 values is patent publication US8859572B2, “Sulfone substituted 2,3-dihydroimidazo [1,2-C] quinazoline derivatives useful for treating hyper-proliferative disorders and diseases with angiogenesis” (Bayer Intellectual Property GmbH, priority 2008, dated 2014).

The target of this experiment is T1, PI3Kβ (recombinant truncated form (ΔN1-108) of the human p110β subunit of PI3K) (Homo sapiens, UniProt P42338).
T1 construct: His6 (N); made in house; host or cells: Spodoptera frugiperda Sf9 insect cells
T1 sequence (P42338 109-1070): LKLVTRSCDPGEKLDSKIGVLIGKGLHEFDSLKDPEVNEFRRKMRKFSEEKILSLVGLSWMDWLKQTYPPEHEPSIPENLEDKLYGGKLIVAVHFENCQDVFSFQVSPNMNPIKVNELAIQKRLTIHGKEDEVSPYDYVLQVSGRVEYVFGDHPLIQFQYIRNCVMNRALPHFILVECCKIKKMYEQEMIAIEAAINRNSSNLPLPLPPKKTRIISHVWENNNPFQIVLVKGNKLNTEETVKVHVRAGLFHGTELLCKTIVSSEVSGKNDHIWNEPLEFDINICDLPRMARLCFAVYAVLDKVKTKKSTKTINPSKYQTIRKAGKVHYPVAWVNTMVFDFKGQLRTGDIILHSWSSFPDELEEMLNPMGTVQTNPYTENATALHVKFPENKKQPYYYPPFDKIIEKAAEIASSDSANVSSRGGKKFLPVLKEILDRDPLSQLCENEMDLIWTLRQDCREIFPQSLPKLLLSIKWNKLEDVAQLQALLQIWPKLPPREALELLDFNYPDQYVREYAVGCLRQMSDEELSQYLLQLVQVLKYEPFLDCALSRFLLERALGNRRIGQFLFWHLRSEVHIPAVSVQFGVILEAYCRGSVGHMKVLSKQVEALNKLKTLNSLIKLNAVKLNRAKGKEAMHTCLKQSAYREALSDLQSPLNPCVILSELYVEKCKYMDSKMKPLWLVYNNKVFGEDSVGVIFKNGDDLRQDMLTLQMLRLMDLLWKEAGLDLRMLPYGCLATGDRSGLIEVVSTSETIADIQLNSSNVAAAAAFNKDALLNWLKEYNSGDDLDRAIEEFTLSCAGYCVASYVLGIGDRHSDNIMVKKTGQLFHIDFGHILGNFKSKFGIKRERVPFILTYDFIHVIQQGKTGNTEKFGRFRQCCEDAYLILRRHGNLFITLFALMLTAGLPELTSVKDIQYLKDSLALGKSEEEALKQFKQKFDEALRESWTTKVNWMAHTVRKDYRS
The experiment in a line: Solid-phase lipid kinase assay of PI3Kβ. The settings on record: 7.5 ng protein/well, final 10 μM ATP, 2 h at rt. In kind it is biochemical. As to the method:
To assess inhibition of PI3Kα by compounds, the Maxisorp™ plates were coated with 50 μL/well of a solution containing 50 μg/ml PtdIns and 50 μg/ml PtdSer dissolved in chloroform:ethanol (3:7). The plates were subsequently air-dried by incubation for at least 2 h in a fume hood. The reaction was set up by mixing 25 μL/well of assay buffer 2×(100 mM MOPSO/NaOH, 0.2 M NaCl, pH 7.0, 8 mM MgCl2, 2 mg/mL BSA (fatty acid-free)), and 7.5 ng/well PI3Kα in the lipid pre-coated plate. Test compounds at different concentrations (0.0, 0.003, 0.01 0.03, 0.1, 0.3, 1.0, 3.0 and 10 μM) were added in 2% DMSO. The reaction was initiated by adding 20 μL/well of ATP mix (final 10 μM ATP; 0.05 μCi/well [γ^33P]ATP). After incubation at rt for 2 h, the reaction was terminated by adding 50 μl/well stop solution (50 mM EDTA, pH 8.0). The plate was then washed twice with Tris-buffered saline (TBS, pH 7.4). MicroScint PS™ (PACKARD) scintillation mix was added at 100 μL/well, and radioactivity was counted using a TopCount™ (PACKARD) scintillation counter.
The inhibition percent at each concentration of compound was calculated, and IC50 values were determined from the inhibition of curve.
A recombinant truncated form (ΔN1-108) of the human p110β subunit of PI3K with an N-terminal His6-Tag was expressed in S. frugiperda 9 insect cells. Recombinant human PI3Kγ (full length human PI3K p110γ fused with a His6-tag at the C-terminus expressed in S. frugiperda 9 insect cells) was obtained from ALEXIS BIOCHEMICALS (#201-055-0010; San Diego, Calif.).
Kinase assays using recombinant truncated p110β or the full length p110γ were performed in a similar manner as described in the determination of IC50 values of compounds in the kinase assay of PI3Kα except that these isoforms were assayed using 7.5 ng and 25.0 ng of protein/well, respectively.

Regarding `COc1c(OCc2ccc(S(C)(=O)=O)cc2)ccc2c1N=C(NC(=O)c1cnc(N)nc1)N1CCN=C21` [Example 16, 2-amino-N-(7-methoxy-8-{[4-(methylsulfonyl)benzyl]oxy}-2,3-dihydroimidazo[1,2-c]quinazolin-5-yl)pyrimidine-5-carboxamide], the IC50 was below 100 nM.
With `CS(=O)(=O)Oc1c(OCCCN2CCOCC2)ccc2c1N=C(NC(=O)c1cccnc1)N1CCN=C21` [Example 37, 8-(3-morpholin-4-ylpropoxy)-5-[(pyridin-3-ylcarbonyl)amino]-2,3-dihydroimidazo[1,2-c]quinazolin-7-yl methanesulfonate] the figure was below 100 nM; with `O=C(NC1=Nc2c(ccc(OCCCN3CCOCC3)c2OCCCS(=O)(=O)N2CCOCC2)C2=NCCN12)c1cccnc1` [Example 12], below 100 nM.
With `COc1c(OCc2ccc(S(C)(=O)=O)cc2)ccc2c1N=C(NC(=O)c1ccc(N)nc1)N1CCN=C21` [Example 20, 6-amino-N-(7-methoxy-8-{[4-(methylsulfonyl)benzyl]oxy}-2,3-dihydroimidazo[1,2-c]quinazolin-5-yl)nicotinamide] the figure was below 100 nM; with `O=C(NC1=Nc2cc(OCCCS(=O)(=O)N3CCOCC3)ccc2C2=NCCN12)c1cncnc1` [Example 28, N-{8-[3-(morpholin-4-ylsulfonyl)propoxy]-2,3-dihydroimidazo[1,2-c]quinazolin-5-yl}pyrimidine-5-carboxamide], 100 to 3000 nM.
Under `COc1c(OCCCS(=O)(=O)N2CCN(C)CC2)ccc2c1N=C(NC(=O)c1cccnc1)N1CCN=C21` [Example 1, N-(7-methoxy-8-{3-[(4-methylpiperazin-1-yl)sulfonyl]propoxy}-2,3-dihydroimidazo[1,2-c]quinazolin-5-yl)nicotinamide] stands below 100 nM; under `CS(=O)(=O)c1ccc(COc2cccc3c2N=C(NC(=O)c2cccnc2)N2CCN=C32)cc1` [Example 10, N-(7-{[4-(methylsulfonyl)benzyl]oxy}-2,3-dihydroimidazo[1,2-c]quinazolin-5-yl)nicotinamide], below 100 nM; under `COc1c(OCCCS(=O)(=O)N(C)C)ccc2c1N=C(NC(=O)c1cccnc1)N1CCN=C21` [Example 5, N-(8-{3-[(dimethylamino)sulfonyl]propoxy}-7-methoxy-2,3-dihydroimidazo[1,2-c]quinazolin-5-yl)nicotinamide], below 100 nM.
Turning to `CCS(=O)(=O)NCCCOc1ccc2c(c1OC)N=C(NC(=O)c1cccnc1)N1CCN=C21` [Example 35, N-(8-[3-[(ethylsulfonyl)amino]propoxy]-7-methoxy-2,3-dihydroimidazo[1,2-c]quinazolin-5-yl)nicotinamide], the IC50 was below 100 nM.
Regarding `COc1c(OCCCN2CCS(=O)(=O)CC2)ccc2c1N=C(NC(=O)c1cnc(N)nc1)N1CCN=C21` [Example 21, 2-amino-N-{8-[3-(1,1-dioxidothiomorpholin-4-yl)propoxy]-7-methoxy-2,3-dihydroimidazo[1,2-c]quinazolin-5-yl}pyrimidine-5-carboxamide], the IC50 was below 100 nM.
